Measured values published in patent US20240082282A1 (priority 2020, published 2024).
≈ marks a conversion by molar mass, not a printed value.

Experiments:
[1] = test system: Clostridium perfringens KLE 2326; assay: microbe, parasite or virus in culture; format: cell-based; details: Clostridium perfringens, KLE2326, read-out: Minimum inhibitory concentration (MIC)
[2] = test system: Borreliella burgdorferi B31; details: Borreliella burgdorferi, B31, read-out: Minimum inhibitory concentration (MIC)
[3] = test system: Streptococcus parasanguinis KLE 2375; format: cell-based; details: KLE2375; Streptococcus parasanguinis KLE 2375, anaerobic, stool isolate; read-out: Minimum inhibitory concentration (MIC)
[4] = test system: Borrelia afzelii; details: Borreliella afzelii, read-out: Minimum inhibitory concentration (MIC)
[5] = test system: Lactobacillus reuteri ATCC 23272; format: cell-based; details: Limosilactobacillus reuteri, ATCC23272; Lactobacillus reuteri ATCC 23272, anaerobic; read-out: Minimum inhibitory concentration (MIC)
[6] = test system: Salmonella typhimurium LT2 ATCC 19585; format: cell-based; details: Salmonella enterica; Salmonella typhimurium LT2 ATCC 19585, anaerobic; read-out: Minimum inhibitory concentration (MIC)
[7] = test system: Bacteroides cellulosilyticus KLE 2342; format: cell-based; details: KLE2342; Bacteroides cellulosilyticus KLE 2342, anaerobic, stool isolate; read-out: Minimum inhibitory concentration (MIC)
[8] = test system: murine gut microbiome; assay: Impact on the murine fecal microbiome (16S rRNA sequencing); details: mouse, in vivo
Method: Stool samples were collected and V4 region of the 16s rRNA gene was amplified using primers and sequenced (IonTorrent).
Fecal pellets were collected 3 days before and 3 days after antibiotic treatment and were stored at −80° C. in PBS. Sequencing of a stool pellet from each mouse from before and after treatment was performed by MR DNA (www.mrdnalab.com, Shallowater, TX, USA) on an Ion Torrent PGM. Using PCR primers, the V4 variable region of the 16SrRNA gene was amplified in a single-step 30 cycle PCR with the HotStarTaq Plus Master Mix Kit (Qiagen, USA). The following conditions were used: 94° C. for 3 minutes and 30 cycles of 94° C. for 30 seconds, 53° C. for 40 seconds and 72° C. for 1 minute, then a final elongation step for 5 minutes at 72° C. […] Barcodes and primers and then sequences<150 bp were removed. Further, sequences with homopolymer runs exceeding 6 bp and sequences with ambiguous calls were removed. The sequences were then denoised, OTUs were generated, and chimeras were removed; OTUs were clustered at 3% divergence. Taxonomic classification was performed using BLASTn against a database derived from RDPII available at www.rdp.cme.msu.edu) and NCBI (www.ncbi.nlm.nih.gov). The change in relative abundance of the most abundant genera from before to after treatment of each individual mouse was reported. Further, raw sequences were processed in Qiita (Gonzalez, A., et al. (2018). Nat Methods 15, 796-798; the contents of which are herein incorporated by reference in its entirety) and were demultiplexed, trimmed to 100 bp, and closed reference OTU picking was performed against the Greengenes database at 97% similarity (McDonald, D. et al. (2012). ISME J 6, 610-618; the contents of which are herein incorporated by reference in its entirety). The alpha diversity based on the Simpson index was calculated in Qiita. The change in the Simpson index was calculated for the fecal microbiome of each mouse from before to after treatment. Statistical significance was calculated using a one-way ANOVA with Tukey's multiple comparisons test (p<0.05).

[9] = test system: Fusobacterium nucleatum KLE 2428; format: cell-based; details: KLE2428; Fusobacterium nucleatum KLE 2428, anaerobic, stool isolate; read-out: Minimum inhibitory concentration (MIC)
[10] = test system: Borrelia burgdorferi BbP1286; assay: microbe, parasite or virus in culture; details: Borreliella burgdorferi, BBP1286, read-out: Minimum inhibitory concentration (MIC)
[11] = test system: Brevinema andersonii ATCC 43811; details: Brevinema andersonii, ATCC43811, read-out: Minimum inhibitory concentration (MIC)
[12] = test system: Parabacteroides merdae KLE 2238; format: cell-based; details: KLE2238; Parabacteroides merdae KLE 2238, anaerobic, stool isolate; read-out: Minimum inhibitory concentration (MIC)
[13] = test system: Borreliella miyamotoi; details: Borreliella, read-out: Minimum inhibitory concentration (MIC)
[14] = test system: Leptospira biflexa ATCC 23582; details: Leptospira biflexa, ATCC23582, read-out: Minimum inhibitory concentration (MIC)
[15] = test system: Enterobacter cloacae ATCC 13047; format: cell-based; details: ATCC13047; Enterobacter cloacae ATCC 13047, anaerobic; read-out: Minimum inhibitory concentration (MIC)
[16] = test system: Shigella sonnei ATCC 25931; format: cell-based; details: ATCC25931; Shigella sonnei ATCC 25931, anaerobic; read-out: Minimum inhibitory concentration (MIC)
[17] = test system: Borrelia bavariensis; details: Borreliella bavariensis, read-out: Minimum inhibitory concentration (MIC)
[18] = test system: Bifidobacterium longum ATCC BAA-999; format: cell-based; details: ATCCBAA999; Bifidobacterium longum ATCC BAA-999, anaerobic; read-out: Minimum inhibitory concentration (MIC)
[19] = test system: Bacteroides nordii KLE 2369; format: cell-based; details: KLE2369; Bacteroides nordii KLE 2369, anaerobic, stool isolate; read-out: Minimum inhibitory concentration (MIC)
[20] = test system: Borrelia turcica DSM 16138; details: Borrelia turcica, DSM16138, read-out: Minimum inhibitory concentration (MIC)
[21] = test system: Blautia producta ATCC 27340; format: cell-based; details: ATCC27340; Blautia producta ATCC 27340, anaerobic; read-out: Minimum inhibitory concentration (MIC)
[22] = test system: Borreliella burgdorferi N40; details: Borreliella burgdorferi, N40, read-out: Minimum inhibitory concentration (MIC)
[23] = test system: Bacteroides eggerthii KLE 2382; format: cell-based; details: KLE2382; Bacteroides eggerthii KLE 2382, anaerobic, stool isolate; read-out: Minimum inhibitory concentration (MIC)
[24] = test system: Streptococcus salivarius KLE 2370; format: cell-based; details: KLE2370; Streptococcus salivarius KLE 2370, anaerobic, stool isolate; read-out: Minimum inhibitory concentration (MIC)
[25] = test system: Staphylococcus epidermidis KLE 2378; format: cell-based; details: KLE2378; Staphylococcus epidermidis KLE 2378, anaerobic, stool isolate; read-out: Minimum inhibitory concentration (MIC)
[26] = test system: Bacteroides ovatus KLE 2306; format: cell-based; details: KLE2306; Bacteroides ovatus KLE 2306, anaerobic, stool isolate; read-out: Minimum inhibitory concentration (MIC)

CC1(C)S[C@@H]2[C@H](NC(=O)[C@H](N)c3ccc(O)cc3)C(=O)N2[C@H]1C(=O)O [Amoxicillin]
MIC [1]: 0.12 µg/mL (≈ 0.328 µM) | MIC [2]: 0.25 µg/mL (≈ 0.684 µM) | MIC [3]: 64 µg/mL (≈ 175 µM) | MIC [4]: 0.01 µg/mL (≈ 0.0274 µM) | MIC [5]: 4 µg/mL (≈ 10.9 µM) | MIC [6]: 16 µg/mL (≈ 43.8 µM) | MIC [7]: 128 µg/mL (≈ 350 µM) | Bloom of Bacteroides [8]: produced a bloom of Bacteroides | Changes in the composition of the microbiota [8]: significant changes | Mice with Enterococcaceae blooms [8]: 4/5 | MIC [9]: 2 µg/mL (≈ 5.47 µM) | MIC [10]: 0.12 µg/mL (≈ 0.328 µM) | MIC [11]: 0.12 µg/mL (≈ 0.328 µM) | MIC [12]: 1 µg/mL (≈ 2.74 µM) | MIC [13]: 0.12 µg/mL (≈ 0.328 µM) | MIC [14]: 8 µg/mL (≈ 21.9 µM) | MIC [15]: > 128 µg/mL | MIC [16]: 2 µg/mL (≈ 5.47 µM) | MIC [17]: 0.06 µg/mL (≈ 0.164 µM) | MIC [18]: 1 µg/mL (≈ 2.74 µM) | MIC [19]: 32 µg/mL (≈ 87.6 µM) | MIC [20]: 0.25 µg/mL (≈ 0.684 µM) | MIC [21]: 1 µg/mL (≈ 2.74 µM) | MIC [22]: 0.12 µg/mL (≈ 0.328 µM) | MIC [23]: 0.5 µg/mL (≈ 1.37 µM) | MIC [24]: 0.06 µg/mL (≈ 0.164 µM) | MIC [25]: > 128 µg/mL | MIC [26]: 0.5 µg/mL (≈ 1.37 µM)

CO/N=C(\C(=O)N[C@@H]1C(=O)N2C(C(=O)O)=C(CSc3nc(=O)c(=O)[nH]n3C)CS[C@H]12)c1csc(N)n1 [Ceftriaxone]
MIC [1]: < 0.01 µg/mL | MIC [2]: 0.01 µg/mL (≈ 0.018 µM) | MIC [3]: 0.06 µg/mL (≈ 0.108 µM) | MIC [4]: < 0.01 µg/mL | MIC [5]: 32 µg/mL (≈ 57.7 µM) | MIC [6]: 0.25 µg/mL (≈ 0.451 µM) | MIC [7]: 128 µg/mL (≈ 231 µM) | Mice with Enterococcaceae blooms [8]: 5/5 | MIC [9]: 0.5 µg/mL (≈ 0.902 µM) | MIC [10]: 0.01 µg/mL (≈ 0.018 µM) | MIC [11]: 0.01 µg/mL (≈ 0.018 µM) | MIC [12]: 0.25 µg/mL (≈ 0.451 µM) | MIC [13]: 0.01 µg/mL (≈ 0.018 µM) | MIC [14]: 2 µg/mL (≈ 3.61 µM) | MIC [15]: 64 µg/mL (≈ 115 µM) | MIC [16]: 0.25 µg/mL (≈ 0.451 µM) | MIC [17]: 0.01 µg/mL (≈ 0.018 µM) | MIC [18]: 4 µg/mL (≈ 7.21 µM) | MIC [19]: 1 µg/mL (≈ 1.8 µM) | MIC [20]: 0.06 µg/mL (≈ 0.108 µM) | MIC [21]: 0.5 µg/mL (≈ 0.902 µM) | MIC [22]: 0.01 µg/mL (≈ 0.018 µM) | MIC [24]: 0.03 µg/mL (≈ 0.0541 µM) | MIC [25]: 1 µg/mL (≈ 1.8 µM) | MIC [26]: 0.02 µg/mL (≈ 0.0361 µM)
